Test results reported in patent US10821115B2, “Compounds that inhibit Mcl-1 protein” (priority 2017, dated 2020).
Read-outs that look alike come from different tables or passages of the source.

Key:
[1] = test system: human multiple myeloma cell line, OPM-2; assay: Cell viability assay (OPM-2 10 FBS), CellTiter-Glo; assay type: cell-based
Summary of the method: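 Steps: plate cells at 3000/well in 10% FBS growth medium, add serially diluted compound, incubate 16 h at 37 °C with 5% CO2, add detection reagent and read luminescence after 25 min. A 4-parameter logistic model gives IC50.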

[2] = biological target: recombinant human Mcl-1 (residues 171-327) / Bim interaction (Homo sapiens (Human), UniProt Q07820); assay: biochemical; assay type: binding; details: TR-FRET, Mcl-1(171-327) / biotin-Bim (51-76); read-out: Mcl-1 HTRF IC50
Chain of recombinant human Mcl-1 (residues 171-327) / Bim interaction (Q07820 171-327): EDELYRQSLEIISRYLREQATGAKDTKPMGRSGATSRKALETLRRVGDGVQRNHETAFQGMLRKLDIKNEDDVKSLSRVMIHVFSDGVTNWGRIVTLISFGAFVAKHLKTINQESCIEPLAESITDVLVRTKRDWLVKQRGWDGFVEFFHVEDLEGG

[3] = Homo sapiens, OPM-2, 16 h, read-out: OPM-2 10% FBS IC50 IP, OPM-2 cells, 10% FBS, 16 h, CellTiter-Glo
[4] = read-out: OPM-2 10% FBS IC50 IP, OPM-2 cells, 10% FBS, 16 h, CellTiter-Glo

Compound	IC50 [1, 3]	IC50 [2]	IC50 [1, 4]
C[C@@H]1[C@@H](C)C[C@H]2CCC[C@](O)(C2)[C@@H]2CC[C@H]2CN2C[C@@]3(CCCc4cc(Cl)ccc43)COc3ccc(cc32)C(=O)NS1(=O)=O [Example 100062, (1S,3′R,6′R,7′S,11′R,13′S,14′R)-6-chloro-7′-hydroxy-13′,14′-dimethyl-3,4-dihydro-2H,17′H-spiro[naphthalene-1,24′-[22]oxa[15]thia[1,16]diazapentacyclo [16.7.2.1~7,11~.0~3,6~.0~21,26~]octacosa [18,20,26]trien]-17′-one 15′,15′-dioxide]	9.94 µM	0.00425 µM	
C[C@@H]1[C@@H](C)C[C@@H](N(C)C)C[C@](C)(O)[C@@H]2CC[C@H]2CN2C[C@@]3(CCCc4cc(Cl)ccc43)COc3ccc(cc32)C(=O)NS1(=O)=O [Example 100063, (1S,3′R,6′R,7′S,9′R,11′S,12′R)-6-chloro-9′-(dimethylamino)-7′-hydroxy-7′,11′,12′-trimethyl-3,4-dihydro-2H,15′H-spiro[naphthalene-1,22′-[20]oxa[13]thia[1,14]diazatetracyclo [14.7.2.0~3,6~.0~19,24~]pentacosa[16,18,24]trien]-15′-one 13′,13′-dioxide]	2.26 µM	0.00232 µM	
CN[C@@H]1C[C@H](C)[C@@H](C)S(=O)(=O)NC(=O)c2ccc3c(c2)N(C[C@@H]2CC[C@H]2[C@@](C)(O)C1)C[C@@]1(CCCc2cc(Cl)ccc21)CO3 [Example 100064, (1S,3′R,6′R,7′S,9′R,11′S,12′R)-6-chloro-7′-hydroxy-7′,11′,12′-trimethyl-9′-(methylamino)-3,4-dihydro-2H,15′H-spiro[naphthalene-1,22′-[20]oxa[13]thia[1,14]diazatetracyclo [14.7.2.0~3,6~.0~19,24~]pentacosa[16,18,24]trien]-15′-one 13′,13′-dioxide]	3.73 µM	0.00254 µM	
CN[C@@H]1C[C@H](C)[C@@H](C)S(=O)(=O)NC(=O)c2ccc3c(c2)N(C[C@@H]2CC[C@H]2[C@@](C)(O)C1)C[C@@]1(CCCc2cc(Cl)ccc21)CO3 [Example 100065, (1S,3′R,6′R,7′S,9′R,11′S,12′R)-6-chloro-7′-hydroxy-7′,11′,12′-trimethyl-9′-(methylamino)-3,4-dihydro-2H,15′H-spiro[naphthalene-1,22′-[20]oxa[13]thia[1,14]diazatetracyclo [14.7.2.0~3,6~.0~19,24~]pentacosa[16,18,24]trien]-15′-one 13′,13′-dioxide]		0.00485 µM	7.39 µM
CN[C@@H]1C[C@H](C)[C@@H](C)S(=O)(=O)NC(=O)c2ccc3c(c2)N(C[C@@H]2CC[C@H]2[C@@](C)(O)C1)C[C@@]1(CCCc2cc(Cl)ccc21)CO3 [Example 100066, (1S,3′R,6′R,7′S,9′R,11′S,12′R)-6-chloro-7′-hydroxy-7′,11′,12′-trimethyl-9′-(methylamino)-3,4-dihydro-2H,15′H-spiro[naphthalene-1,22′-[20]oxa[13]thia[1,14]diazatetracyclo [14.7.2.0~3,6~.0~19,24~]pentacosa[16,18,24]trien]-15′-one 13′,13′-dioxide]		0.00143 µM	3.82 µM
CCOP(=O)(OCC)C(F)(F)[C@]1(O)/C=C/C[C@H](C)[C@@H](C)S(=O)(=O)NC(=O)c2ccc3c(c2)N(C[C@@H]2CC[C@H]21)C[C@@]1(CCCc2cc(Cl)ccc21)CO3 [Example 100067, diethyl (((1S,3′R,6′R,7′S,8′E,11′S,12′R)-6-chloro-7′-hydroxy-11′,12′-dimethyl-13′,13′-dioxido-15′-oxo-3,4-dihydro-2H-spiro[naphthalene-1,22′-[20]oxa[13]thia[1,14]diazatetracyclo [14.7.2.0~3,6~.0~19,24~]pentacosa[8,16,18,24]tetraen]-7′-yl)(difluoro)methyl)phosphonate]		0.00101 µM	0.271 µM
CCOP(=O)(OCC)C(F)(F)[C@]1(O)/C=C/C[C@H](C)[C@@H](C)S(=O)(=O)NC(=O)c2ccc3c(c2)N(C[C@@H]2CC[C@H]21)C[C@@]1(CCCc2cc(Cl)ccc21)CO3 [Example 100068, diethyl (((1S,3′R,6′R,7′S,8′E,11′S,12′R)-6-chloro-7′-hydroxy-11′,12′-dimethyl-13′,13′-dioxido-15′-oxo-3,4-dihydro-2H-spiro[naphthalene-1,22′-[20]oxa[13]thia[1,14]diazatetracyclo [14.7.2.0~3,6~.0~19,24~]pentacosa[8,16,18,24]tetraen]-7′-yl)(difluoro)methyl)phosphonate]		0.00441 µM	0.765 µM
C[C@@H]1[C@@H](C)C/C=C/[C@@](O)(C(F)F)[C@@H]2CC[C@H]2CN2C[C@@]3(CCCc4cc(Cl)ccc43)COc3ccc(cc32)C(=O)NS1(=O)=O [Example 100069, (1S,3′R,6′R,7′S,8′E,11′S,12′R)-6-chloro-7′-(difluoromethyl)-7′-hydroxy-11′,12′-dimethyl-3,4-dihydro-2H,15′H-spiro[naphthalene-1,22′-[20]oxa[13]thia[1,14]diazatetracyclo [14.7.2.0~3,6~.0~19,24~]pentacosa[8,16,18,24]tetraen]-15′-one 13′,13′-dioxide]		0.000457 µM	0.25 µM
C[C@@H]1[C@@H](C)C/C=C/[C@@](O)(C(F)F)[C@@H]2CC[C@H]2CN2C[C@@]3(CCCc4cc(Cl)ccc43)COc3ccc(cc32)C(=O)NS1(=O)=O [Example 100070, (1S,3′R,6′R,7′S,8′E,11′S,12′R)-6-chloro-7′-(difluoromethyl)-7′-hydroxy-11′,12′-dimethyl-3,4-dihydro-2H,15′H-spiro[naphthalene-1,22′-[20]oxa[13]thia[1,14]diazatetracyclo [14.7.2.0~3,6~.0~19,24~]pentacosa[8,16,18,24]tetraen]-15′-one 13′,13′-dioxide]		0.00485 µM	1.07 µM
CO[C@@]1(C(F)F)/C=C/C[C@H](C)[C@@H](C)S(=O)(=O)NC(=O)c2ccc3c(c2)N(C[C@@H]2CC[C@H]21)C[C@@]1(CCCc2cc(Cl)ccc21)CO3 [Example 100071, (1S,3′R,6′R,7′S,8′E,11′S,12′R)-6-chloro-7′-(difluoromethyl)-7′-methoxy-11′,12′-dimethyl-3,4-dihydro-2H,15′H-spiro[naphthalene-1,22′-[20]oxa[13]thia[1,14]diazatetracyclo [14.7.2.0~3,6~.0~19,24~]pentacosa[8,16,18,24]tetraen]-15′-one 13′,13′-dioxide]	0.588 µM	0.00154 µM	
C[C@@H]1[C@@H](C)C/C=C/[C@@](O)(CS(C)(=O)=O)[C@@H]2CC[C@H]2CN2C[C@@]3(CCCc4cc(Cl)ccc43)COc3ccc(cc32)C(=O)NS1(=O)=O [Example 100072, (1S,3′R,6′R,7′S,8′E,11′S,12′R)-6-chloro-7′-hydroxy-11′,12′-dimethyl-7′-((methylsulfonyl)methyl)-3,4-dihydro-2H,15′H-spiro[naphthalene-1,22′-[20]oxa[13]thia[1,14]diazatetracyclo [14.7.2.0~3,6~.0~19,24~]pentacosa[8,16,18,24]tetraen]-15′-one 13′,13′-dioxide]	1.72 µM	0.000451 µM	
C[C@@H]1[C@@H](C)C/C=C/[C@@](O)(CS(C)(=O)=O)[C@@H]2CC[C@H]2CN2C[C@@]3(CCCc4cc(Cl)ccc43)COc3ccc(cc32)C(=O)NS1(=O)=O [Example 100073, (1S,3′R,6′R,7′S,8′E,11′S,12′R)-6-chloro-7′-hydroxy-11′,12′-dimethyl-7′-((methylsulfonyl)methyl)-3,4-dihydro-2H,15′H-spiro[naphthalene-1,22′-[20]oxa[13]thia[1,14]diazatetracyclo [14.7.2.0~3,6~.0~19,24~]pentacosa[8,16,18,24]tetraen]-15′-one 13′,13′-dioxide]		0.000346 µM	1.2 µM
CC[C@]1(O)CCC[C@H](C)[C@@H](C)S(=O)(=O)NC(=O)c2ccc3c(c2)N(C[C@@H]2CC[C@H]21)C[C@@]1(CCCc2cc(Cl)ccc21)CO3 [Example 100076, (1S,3′R,6′R,7′S,11′S,12′R)-6-chloro-7′-ethyl-7′-hydroxy-11′,12′-dimethyl-3,4-dihydro-2H,15′H-spiro[naphthalene-1,22′-[20]oxa[13]thia[1,14]diazatetracyclo [14.7.2.0~3,6~.0~19,24~]pentacosa[16,18,24]trien]-15′-one 13′,13′-dioxide]	2.67 µM	0.00966 µM	
C[C@@H]1[C@@H](C)C/C=C/[C@@](O)(CC(=O)N(C)C)[C@@H]2CC[C@H]2CN2C[C@@]3(CCCc4cc(Cl)ccc43)COc3ccc(cc32)C(=O)NS1(=O)=O [Example 100077, 2-((1S,3′R,6′R,7′S,8′E,11′S,12′R)-6-chloro-7′-hydroxy-11′,12′-dimethyl-13′,13′-dioxido-15′-oxo-3,4-dihydro-2H-spiro[naphthalene-1,22′-[20]oxa[13]thia[1,14]diazatetracyclo [14.7.2.0~3,6~.0~19,24~]pentacosa[8,16,18,24]tetraen]-7′-yl)-N,N-dimethylacetamide]		0.00019 µM	0.052 µM
C[C@@H]1[C@@H](C)C/C=C/[C@@](O)(CC(=O)N(C)C)[C@@H]2CC[C@H]2CN2C[C@@]3(CCCc4cc(Cl)ccc43)COc3ccc(cc32)C(=O)NS1(=O)=O [Example 100078, 2-((1S,3′R,6′R,7′S,8′E,11′S,12′R)-6-chloro-7′-hydroxy-11′,12′-dimethyl-13′,13′-dioxido-15′-oxo-3,4-dihydro-2H-spiro[naphthalene-1,22′-[20]oxa[13]thia[1,14]diazatetracyclo [14.7.2.0~3,6~.0~19,24~]pentacosa[8,16,18,24]tetraen]-7′-yl)-N,N-dimethylacetamide]		0.000409 µM	2.72 µM
